Measurements: paper PMC12717099, “Peptidoglycan recruitment by a penicillin binding protein” (Nature Communications, 2025)

What was measured:
Assay type in all cases: binding, Enterococcus faecium
PBP5:PenG complex (1:8) = assay: NMR CSP titration of stem peptides into PenG-saturated PBP5; details: PBP5:PenG 1:8, then SP titration
Experimental: (§1) Data was processed using Topspin 4.1.4 (Bruker) and analyzed using NMRFAM-SPARKY 1.3 and Poky (build number 20240829)[20],[21]. The sequence-specific backbone assignment of PBP5 is publicly available at BMRBID 51690.
(§2) SPs (SP1 to SP7) were titrated into 0.5 mM (^2H,^15N)-labeled and 0.1 mM (^2H,^15N)/^13C ILV labeled PBP5 at molar ratios of 0:1, 5:1, 10:1, 20:1, 40:1, 60:1, and 80:1 (stem peptide/SP:PBP5; molar ratios). 2D [^1H,^15N] TROSY or 2D [^1H,^13C] HMQC spectra were recorded for each titration point. SPs were solubilized in NMR buffer. Chemical shift perturbations (Δδ) between PBP5 and SP bound PBP5 spectra were calculated using Eq. 1,1 Δδppm=ΔδH^2+ΔδX/Y^2 where, X is ^15N or ^13C and Y is the constant i.e., 10 for ^15N and 4 for ^13C.
(§3) Residues with significant CSPs were identified by calculating the standard deviation of all CSPs (σ), then excluding any CSPs larger than average+2σ, recalculating σ as a new corrected σ0, and then repetitively removing CSPs above 2σ0 until no additional CSPs can be removed. CSPs above ≥2σ2 was the statistical threshold for ^1H/^15N backbone CSP analysis and ≥2xσ1 for ^1H/^13C methyl ILV data for the interaction of SP1 with PBP5. The same threshold values were used for all other peptides to allow for direct comparison with the SP1/PBP5 interaction. […]

PBP5-S422A = assay: 1D 1H STD NMR of SP2 with PBP5-S422A; details: for STD amplification factor, 2000: 2 s saturation
Description: (§4) Total saturation time for STD measurements was 2 s.
(§5) Overlapped peaks were completely excluded from the analysis.

PBP5:PenG complex = assay: 1D 1H STD NMR of stem peptides with PBP5:PenG; details: for STD amplification factor: PenG-saturated PBP5, 2 s saturation
Description: as §4, §5

[1] = test system: PBP5:ceftaroline complex (1:8); assay: NMR CSP titration of SP2 into ceftaroline-saturated PBP5; details: PBP5:ceftaroline 1:8
Experimental: as §1, §2, §3

PBP5 = assay: 1D 1H STD NMR of stem peptides with PBP5; details: for STD % to SP1: normalised to highest SP1:PBP5 value; for STD amplification factor: protein:peptide 1:100, 2 s saturation, 308 K
Description: as §4, §5

## D-Lac-L-Ala-D-iGln-L-Lys(D-iAsn) [SP2]
PBP5:PenG complex (1:8)
  CSPs in presence vs absence of penicillin, in words: nearly identical
PBP5-S422A; 1H DLacβ
  STD % to SP1: 42.7391%
  STD amplification factor as fraction of highest SP1:PBP5 value: 0.4274
  STD amplification factor, 2000: 11.5004
PBP5-S422A; 1H DQ2β (first listed)
  STD % to SP1: 84.4303%
  STD amplification factor as fraction of highest SP1:PBP5 value: 0.8443
  STD amplification factor, 2000: 22.7188
PBP5-S422A; 1H DQ2β (second listed)
  STD % to SP1: 106.599%
  STD amplification factor as fraction of highest SP1:PBP5 value: 1.066
  STD amplification factor, 2000: 28.6841
PBP5-S422A; 1H DQ2γ
  STD % to SP1: 33.2164%
  STD amplification factor as fraction of highest SP1:PBP5 value: 0.3322
  STD amplification factor, 2000: 8.938
PBP5-S422A; 1H K3α
  STD % to SP1: 52.4105%
  STD amplification factor as fraction of highest SP1:PBP5 value: 0.5241
  STD amplification factor, 2000: 14.1028
PBP5-S422A; 1H K3β
  STD % to SP1: 115.403%
  STD amplification factor as fraction of highest SP1:PBP5 value: 1.154
  STD amplification factor, 2000: 31.053
PBP5-S422A; 1H K3γ
  STD % to SP1: 71.5712%
  STD amplification factor as fraction of highest SP1:PBP5 value: 0.7157
  STD amplification factor, 2000: 19.2587
PBP5-S422A; 1H K3δ
  STD % to SP1: 86.8848%
  STD amplification factor as fraction of highest SP1:PBP5 value: 0.8688
  STD amplification factor, 2000: 23.3793
PBP5-S422A; 1H K3ε
  STD % to SP1: 15.5454%
  STD amplification factor as fraction of highest SP1:PBP5 value: 0.1555
  STD amplification factor, 2000: 4.183
PBP5-S422A; 1H LA1α
  STD % to SP1: 31.0506%
  STD amplification factor as fraction of highest SP1:PBP5 value: 0.3105
  STD amplification factor, 2000: 8.355
PBP5-S422A; 1H LA1β
  STD % to SP1: 44.3762%
  STD amplification factor as fraction of highest SP1:PBP5 value: 0.4438
  STD amplification factor, 2000: 11.9409
PBP5-S422A; 1H iNα,DQ2α
  STD % to SP1: 24.4286%
  STD amplification factor as fraction of highest SP1:PBP5 value: 0.2443
  STD amplification factor, 2000: 6.573
PBP5-S422A; 1H iNβ
  STD % to SP1: 38.4337%
  STD amplification factor as fraction of highest SP1:PBP5 value: 0.3843
  STD amplification factor, 2000: 10.3419
PBP5:PenG complex; 1H DLacβ
  STD amplification factor, ref to SP1 (fraction): 0.3213
  STD, ref to SP1 (percent): 32.1311
  STD amplification factor: 8.646
PBP5:PenG complex; 1H DQ2β (first listed)
  STD amplification factor, ref to SP1 (fraction): 0.7026
  STD, ref to SP1 (percent): 70.2576
  STD amplification factor: 18.9052
PBP5:PenG complex; 1H DQ2β (second listed)
  STD amplification factor, ref to SP1 (fraction): 0.9395
  STD, ref to SP1 (percent): 93.9523
  STD amplification factor: 25.2811
PBP5:PenG complex; 1H DQ2γ
  STD amplification factor, ref to SP1 (fraction): 0.3025
  STD, ref to SP1 (percent): 30.2481
  STD amplification factor: 8.139
PBP5:PenG complex; 1H K3α
  STD amplification factor, ref to SP1 (fraction): 0.5268
  STD, ref to SP1 (percent): 52.6829
  STD amplification factor: 14.1761
PBP5:PenG complex; 1H K3β
  STD amplification factor, ref to SP1 (fraction): 1.026
  STD, ref to SP1 (percent): 102.583
  STD amplification factor: 27.6034
PBP5:PenG complex; 1H K3γ
  STD amplification factor, ref to SP1 (fraction): 0.589
  STD, ref to SP1 (percent): 58.9034
  STD amplification factor: 15.8499
PBP5:PenG complex; 1H K3δ
  STD amplification factor, ref to SP1 (fraction): 0.6424
  STD, ref to SP1 (percent): 64.2392
  STD amplification factor: 17.2857
PBP5:PenG complex; 1H K3ε
  STD amplification factor, ref to SP1 (fraction): 0.1756
  STD, ref to SP1 (percent): 17.5552
  STD amplification factor: 4.724
PBP5:PenG complex; 1H LA1α
  STD amplification factor, ref to SP1 (fraction): 0.4522
  STD, ref to SP1 (percent): 45.2214
  STD amplification factor: 12.1683
PBP5:PenG complex; 1H LA1β
  STD amplification factor, ref to SP1 (fraction): 0.3642
  STD, ref to SP1 (percent): 36.4217
  STD amplification factor: 9.8
PBP5:PenG complex; 1H iNα,DQ2α
  STD amplification factor, ref to SP1 (fraction): 0.2492
  STD, ref to SP1 (percent): 24.9206
  STD amplification factor: 6.706
PBP5:PenG complex; 1H iNβ
  STD amplification factor, ref to SP1 (fraction): 0.3249
  STD, ref to SP1 (percent): 32.4924
  STD amplification factor: 8.743
[1]
  CSPs with ceftaroline-saturated PBP5 vs β-lactam free and PenG-saturated PBP5, in words: virtually identical
PBP5; 1H DLacβ
  STD amplification factor as fraction of highest SP1:PBP5 value: 0.3338
  STD % to SP1: 33.3802%
  STD amplification factor: 8.982
PBP5; 1H DQ2β (first listed)
  STD amplification factor as fraction of highest SP1:PBP5 value: 0.6658
  STD % to SP1: 66.5792%
  STD amplification factor: 17.9154
PBP5; 1H DQ2β (second listed)
  STD amplification factor as fraction of highest SP1:PBP5 value: 0.8494
  STD % to SP1: 84.9407%
  STD amplification factor: 22.8562
PBP5; 1H DQ2γ
  STD amplification factor as fraction of highest SP1:PBP5 value: 0.2468
  STD % to SP1: 24.6819%
  STD amplification factor: 6.6415
PBP5; 1H K3α
  STD amplification factor as fraction of highest SP1:PBP5 value: 0.4302
  STD % to SP1: 43.0201%
  STD amplification factor: 11.576
PBP5; 1H K3β
  STD amplification factor as fraction of highest SP1:PBP5 value: 0.9507
  STD % to SP1: 95.0654%
  STD amplification factor: 25.5806
PBP5; 1H K3γ
  STD amplification factor as fraction of highest SP1:PBP5 value: 0.5906
  STD % to SP1: 59.0623%
  STD amplification factor: 15.8927
PBP5; 1H K3δ
  STD amplification factor as fraction of highest SP1:PBP5 value: 0.6971
  STD % to SP1: 69.7058%
  STD amplification factor: 18.7567
PBP5; 1H K3ε
  STD amplification factor as fraction of highest SP1:PBP5 value: 0.1751
  STD % to SP1: 17.5055%
  STD amplification factor: 4.71
PBP5; 1H LA1α
  STD amplification factor as fraction of highest SP1:PBP5 value: 0.3317
  STD % to SP1: 33.1655%
  STD amplification factor: 8.924
PBP5; 1H LA1β
  STD amplification factor as fraction of highest SP1:PBP5 value: 0.3463
  STD % to SP1: 34.6271%
  STD amplification factor: 9.318
PBP5; 1H iNα,DQ2α
  STD amplification factor as fraction of highest SP1:PBP5 value: 0.2066
  STD % to SP1: 20.663%
  STD amplification factor: 5.56
PBP5; 1H iNβ
  STD amplification factor as fraction of highest SP1:PBP5 value: 0.2856
  STD % to SP1: 28.5568%
  STD amplification factor: 7.684
